The values that follow come from patent US5528046A, “Method and device for determining the location and number of fluorescent molecules” (Hamamatsu Photonics K.K., priority 1992, dated 1996).

Assay [1] deals with streptavidin (SA), tetramer (Streptomyces avidinii, UniProt P22629). The settings on record: cited from earlier work.
The target in a further assay is bovine serum albumin (Bos taurus, UniProt P02769). Description: Affinity of bovine serum albumin for FLB (FLB absorption spectrum). The class given is binding. The settings on record: causes no changes to FLB spectrum. The text has this: Foster and Konig report that is has been found based on changes of absorption spectra of some organic dye molecules (fluorescent molecules) containing a fluorescent substrate in water that the organic dye molecules form dimers at high concentration (10^-3 -10^-1 M). Koizumi and Mataga report a change of absorption spectrum in an aqueous solution containing fluorescent molecules in the presence of electrolytic polymers. Based on these studies, it is considered that changes of the spectra are caused by the cohesive effect of the fluorescent molecules to the polymers. Considering these past studies and the bonding between SA and B due to their high affinity, it is considered that similarly sufficient local adhesion effects of FLB to SA can be present. This is further optical evidence of the interaction between SA and FLB. For example, bovine serum albumin, which has no affinity with FLB, causes no changes to FLB spectrum.
bovine serum albumin, sequence (P02769 25-607): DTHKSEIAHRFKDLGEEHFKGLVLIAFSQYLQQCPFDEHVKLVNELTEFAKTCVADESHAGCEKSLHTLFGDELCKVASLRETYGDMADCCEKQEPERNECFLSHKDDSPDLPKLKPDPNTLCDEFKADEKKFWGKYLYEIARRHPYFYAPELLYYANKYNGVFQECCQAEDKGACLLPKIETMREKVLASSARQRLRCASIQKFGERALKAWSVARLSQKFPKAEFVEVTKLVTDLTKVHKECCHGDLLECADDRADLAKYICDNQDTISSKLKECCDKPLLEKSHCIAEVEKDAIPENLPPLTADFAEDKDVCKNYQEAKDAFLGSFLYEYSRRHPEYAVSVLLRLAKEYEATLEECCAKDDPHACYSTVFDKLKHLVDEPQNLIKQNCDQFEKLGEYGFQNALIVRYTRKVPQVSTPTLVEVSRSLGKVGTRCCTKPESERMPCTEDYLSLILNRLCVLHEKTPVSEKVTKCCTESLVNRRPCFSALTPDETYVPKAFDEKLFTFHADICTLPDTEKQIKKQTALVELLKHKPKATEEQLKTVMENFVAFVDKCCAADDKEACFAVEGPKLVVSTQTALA

streptavidin (SA), tetramer, sequence (P22629 25-183): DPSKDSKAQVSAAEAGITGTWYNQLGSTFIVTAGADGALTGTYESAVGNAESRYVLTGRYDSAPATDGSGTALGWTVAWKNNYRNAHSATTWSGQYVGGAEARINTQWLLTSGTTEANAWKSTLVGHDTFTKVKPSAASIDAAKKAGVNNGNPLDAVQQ

For `O=C(O)CCCC[C@@H]1SC[C@@H]2NC(=O)N[C@@H]21` [B, biotin], the “lifetime of the SA/B complex” value in assay [1] is “about 2.9 days”.
With `O=C(CCCCCNC(=O)CCCC[C@@H]1SC[C@@H]2NC(=O)N[C@@H]21)NCCCCCNC(=S)Nc1ccc2c(c1)C(=O)OC21c2ccc(O)cc2Oc2cc(O)ccc21` [FLB, fluorescein biotin], at bovine serum albumin, the “affinity with FLB” value is “no affinity”.
